Source: PubChem BioAssay AID248 (DTP/NCI, 2004)
Where “and” joins values, the source holds several entries; their conditions need not be identical. Identical values can stand only once. Inconclusive results and toxic doses are left out. Cut-off read from the data, not from the text of the source: active = T/C of 150% or more; inactive = T/C below 125%.

Tested on: L1210 leukemia ip in BDF1 mice, survival T/C
Test: NCI In Vivo Anticancer Drug Screen. Data for tumor model L1210 Leukemia (intraperitoneal) in B6D2F1 (BDF1) mice
Details: endpoint: mean survival time, higher = longer survival
How it was run: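 Ratio derived from survival: compound-dosed mice over vehicle-dosed mice, all bearing a transplantable tumor.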

[1] = dose: 50.0 mg/kg/injection, schedule: Q01DX009 (ip), vehicle: saline with Tween-80
[2] = dose: 100.0 mg/kg/injection, schedule: Q01DX009 (ip), vehicle: saline with Tween-80
[3] = dose: 100.0 mg/kg/injection, schedule: Q01DX001 (ip), vehicle: carboxymethylcellulose (CMC)
[4] = dose: 200.0 mg/kg/injection, schedule: Q01DX001 (ip), vehicle: carboxymethylcellulose (CMC)
[5] = dose: 400.0 mg/kg/injection, schedule: Q01DX001 (ip), vehicle: carboxymethylcellulose (CMC)
[6] = dose: 100.0 mg/kg/injection, schedule: Q01DX001 (ip), vehicle: saline
[7] = dose: 200.0 mg/kg/injection, schedule: Q01DX001 (ip), vehicle: saline
[8] = dose: 400.0 mg/kg/injection, schedule: Q01DX001 (ip), vehicle: saline
[9] = dose: 100.0 mg/kg/injection, schedule: Q01DX009 (ip), vehicle: Klucel (hydroxypropylcellulose) (HPC)
[10] = dose: 100.0 mg/kg/injection, schedule: Q04DX003 (ip), vehicle: Klucel (hydroxypropylcellulose) (HPC)
[11] = dose: 200.0 mg/kg/injection, schedule: Q01DX009 (ip), vehicle: Klucel (hydroxypropylcellulose) (HPC)
[12] = dose: 200.0 mg/kg/injection, schedule: Q04DX003 (ip), vehicle: Klucel (hydroxypropylcellulose) (HPC)
[13] = dose: 400.0 mg/kg/injection, schedule: Q04DX003 (ip), vehicle: Klucel (hydroxypropylcellulose) (HPC)
[14] = dose: 6.25 mg/kg/injection, schedule: Q01DX009 (ip), vehicle: saline
[15] = dose: 12.5 mg/kg/injection, schedule: Q01DX009 (ip), vehicle: saline
[16] = dose: 25.0 mg/kg/injection, schedule: Q01DX009 (ip), vehicle: saline
[17] = dose: 25.0 mg/kg/injection, schedule: Q04DX003 (ip), vehicle: saline
[18] = dose: 50.0 mg/kg/injection, schedule: Q01DX009 (ip), vehicle: saline
[19] = dose: 50.0 mg/kg/injection, schedule: Q04DX003 (ip), vehicle: saline
[20] = dose: 100.0 mg/kg/injection, schedule: Q04DX003 (ip), vehicle: saline
[21] = dose: 50.0 mg/kg/injection, schedule: Q01DX009 (ip), vehicle: Klucel (hydroxypropylcellulose) (HPC)
[22] = dose: 75.0 mg/kg/injection, schedule: Q01DX001 (ip), vehicle: saline
[23] = dose: 150.0 mg/kg/injection, schedule: Q01DX001 (ip), vehicle: saline
[24] = dose: 300.0 mg/kg/injection, schedule: Q01DX001 (ip), vehicle: saline
[25] = dose: 25.0 mg/kg/injection, schedule: Q04DX003 (ip), vehicle: Klucel (hydroxypropylcellulose) (HPC)
[26] = dose: 50.0 mg/kg/injection, schedule: Q04DX003 (ip), vehicle: Klucel (hydroxypropylcellulose) (HPC)
[27] = dose: 200.0 mg/kg/injection, schedule: Q01DX009 (ip), vehicle: saline with Tween-80
[28] = dose: 400.0 mg/kg/injection, schedule: Q01DX009 (ip), vehicle: saline with Tween-80

Measured: T/C

COC(=O)c1coc(C(=O)N2CCCC2)c1C(=O)O
inactive: dose: 75.0 mg/kg/injection, schedule: Q04DX003 (ip), vehicle: Klucel (hydroxypropylcellulose) (HPC) 93 % of control | dose: 100.0 mg/kg/injection, schedule: Q01DX001 (ip), vehicle: Klucel (hydroxypropylcellulose) (HPC) 103 % of control | dose: 150.0 mg/kg/injection, schedule: Q04DX003 (ip), vehicle: Klucel (hydroxypropylcellulose) (HPC) 105 % of control | dose: 200.0 mg/kg/injection, schedule: Q01DX001 (ip), vehicle: Klucel (hydroxypropylcellulose) (HPC) 101 % of control | dose: 300.0 mg/kg/injection, schedule: Q04DX003 (ip), vehicle: Klucel (hydroxypropylcellulose) (HPC) 98 % of control | dose: 400.0 mg/kg/injection, schedule: Q01DX001 (ip), vehicle: Klucel (hydroxypropylcellulose) (HPC) 103 % of control

c1ccc(CNCCCNCc2ccccn2)nc1
inactive: [1] 93 % of control | [2] 98 % of control

O=C(NCCCl)Nc1ccc(Br)cc1
inactive: [3] 101 % of control | [4] 98 % of control | [5] 115 % of control

CC1(C)N=C(N)N=C(N)N1c1ccc(Cl)c(C(F)(F)F)c1
inactive: dose: 8.33 mg/kg/injection, schedule: Q01DX009 (ip), vehicle: saline with Tween-80 115 % of control | dose: 8.8 mg/kg/injection, schedule: Q04DX003 (ip), vehicle: saline with Tween-80 107 % of control | dose: 12.5 mg/kg/injection, schedule: Q01DX009 (ip), vehicle: saline with Tween-80 118 % of control | dose: 13.3 mg/kg/injection, schedule: Q04DX003 (ip), vehicle: saline with Tween-80 104 % of control | dose: 20.0 mg/kg/injection, schedule: Q04DX003 (ip), vehicle: saline with Tween-80 101 % of control | dose: 25.0 mg/kg/injection, schedule: Q01DX009 (ip), vehicle: saline with Tween-80 116 % of control | dose: 30.0 mg/kg/injection, schedule: Q04DX003 (ip), vehicle: saline with Tween-80 106 % of control | dose: 33.0 mg/kg/injection, schedule: Q01DX009 (ip), vehicle: saline with Tween-80 118 % of control | dose: 45.0 mg/kg/injection, schedule: Q04DX003 (ip), vehicle: saline with Tween-80 115 % of control | [1] 98 % of control | dose: 100.0 mg/kg/injection, schedule: Q04DX003 (ip), vehicle: saline with Tween-80 108 % of control

CCC1CN1C(=O)c1ccc(OP(=O)(N2CC2CC)N2CC2CC)cc1 (stereo not given)
inactive: dose: 50.0 mg/kg/injection, schedule: Q01DX001 (ip), vehicle: saline 102 % of control | [6] 102 % of control | [7] 105 % of control | [8] 102 % of control

BrC1CC/C=C\CCC1Br (stereo not given)
inactive: [9] 93 % of control | [10] 105 % of control | [11] 87 % of control | [12] 91 % of control | dose: 400.0 mg/kg/injection, schedule: Q01DX009 (ip), vehicle: Klucel (hydroxypropylcellulose) (HPC) 93 % of control | [13] 109 % of control

Cc1cc([N+](=O)[O-])cc(C)c1OC(=O)c1ccc(N=C(N)N)cc1
inactive: dose: 3.12 mg/kg/injection, schedule: Q01DX009 (ip), vehicle: saline 94 % of control | [14] 93 % of control | [15] 103 % of control | [16] 97 % of control and 107 % of control | [17] 111 % of control | [18] 103 % of control and 92 % of control | [19] 105 % of control | [20] 100 % of control

COc1ccc2c(ccc3c2ncc2c(=O)[nH]n(C)c23)c1
inactive: [21] 93 % of control | [9] 93 % of control | [11] 93 % of control

O=C(Cn1ccc(=O)[nH]c1=O)Nc1nccs1
inactive: [14] 102 % of control | [15] 104 % of control | dose: 12.5 mg/kg/injection, schedule: Q04DX003 (ip), vehicle: saline 122 % of control | [16] 103 % of control | [17] 95 % of control

COc1cccc(CNC(C)(C)CO)c1
inactive: [22] 95 % of control | [23] 102 % of control | [24] 104 % of control

CCNC(=O)C(=O)c1ccccc1NC(C)=O
inactive: [10] 99 % of control | [12] 100 % of control | [13] 96 % of control

COc1ccc(CNc2ncccn2)cc1
inactive: [10] 102 % of control | [12] 102 % of control | [13] 107 % of control

[O-][n+]1c2ccc(Cl)cc2nc2ccc(Cl)cc21
inactive: [25] 95 % of control | [26] 93 % of control | [10] 92 % of control and 88 % of control

Cc1nnc2sc(C(=O)O)nn12
inactive: [6] 90 % of control | [7] 93 % of control | [8] 96 % of control

FC(F)(F)c1cccc(NC(=S)N/N=C/c2ccccc2)c1
inactive: [2] 92 % of control | [27] 97 % of control | [28] 94 % of control

C#CCC1CCCC/C1=N\Nc1ccc([N+](=O)[O-])cc1[N+](=O)[O-] (stereo not given)
inactive: dose: 100.0 mg/kg/injection, schedule: Q04DX002 (ip), vehicle: Klucel (hydroxypropylcellulose) (HPC) 96 % of control | dose: 200.0 mg/kg/injection, schedule: Q04DX002 (ip), vehicle: Klucel (hydroxypropylcellulose) (HPC) 103 % of control | dose: 400.0 mg/kg/injection, schedule: Q04DX002 (ip), vehicle: Klucel (hydroxypropylcellulose) (HPC) 92 % of control

Cc1c[n+](Cc2ccccc2)cc(C)n1
inactive: [22] 105 % of control | [23] 98 % of control

CCOP(=S)(OCC)Oc1cccc(NC(=O)CC)c1
inactive: [2] 102 % of control | [27] 104 % of control | [28] 93 % of control

O=C1C(=O)c2cccc([N+](=O)[O-])c2-c2c1cccc2[N+](=O)[O-]
inactive: [6] 102 % of control | [7] 106 % of control | [8] 102 % of control

CC(C)=C(Br)Br
inactive: [22] 94 % of control | [23] 94 % of control | [24] 96 % of control

Cc1cc(Sc2cc(C)[n+]([O-])c(C)c2)cc(C)[n+]1[O-]
inactive: [10] 103 % of control | [12] 100 % of control | [13] 114 % of control

Cc1cccc(OCc2ccccc2)n1
inactive: dose: 50.0 mg/kg/injection, schedule: Q01DX001 (ip), vehicle: carboxymethylcellulose (CMC) 103 % of control | [3] 105 % of control | [4] 100 % of control | [5] 100 % of control

O=C1NC(=O)C(=O)C(=O)N1
inactive: [18] 94 % of control | [19] 93 % of control | [6] 94 % of control | dose: 100.0 mg/kg/injection, schedule: Q01DX009 (ip), vehicle: saline 97 % of control | [20] 97 % of control | [7] 108 % of control | dose: 200.0 mg/kg/injection, schedule: Q01DX009 (ip), vehicle: saline 103 % of control | dose: 200.0 mg/kg/injection, schedule: Q04DX003 (ip), vehicle: saline 97 % of control

CCN(CC)CCCC(C)Nc1ccnc(/C=C/c2ccc(Br)cc2)c1 (stereo not given)
inactive: dose: 25.0 mg/kg/injection, schedule: Q01DX009 (ip), vehicle: Klucel (hydroxypropylcellulose) (HPC) 98 % of control | [25] 108 % of control | [21] 106 % of control | [26] 108 % of control and 88 % of control | [6] 93 % of control | [9] 97 % of control | [10] 97 % of control

Cc1ccc([N+](=O)[O-])cc1NC(=O)SCCSC(=O)Nc1cc([N+](=O)[O-])ccc1C
inactive: [10] 90 % of control | [12] 92 % of control | [13] 92 % of control
